Columns and labels:
KRAS-G12V = target: T1, KRAS-G12V (Homo sapiens, UniProt P01116, G12V); assay: SOS-catalyzed nucleotide exchange assay (Procedure A, TR-FRET); assay type: biochemical; conditions: 60 min preincubation, SOS + GTP, read-out: KRAS G12V GNE IC50
T1 construct: N-terminal biotin-acceptor peptide […]
Description: (§1) Procedure for SOS-Catalyzed Nucleotide Exchange Assay for KRAS-G12C/D/V, G13D, HRAS, and NRAS (Procedure A)
(§2) Recombinant KRAS-G12C protein used in this assay has an additional triple mutation (C51S/C80L/C118S), whereas KRAS-G12D/V, G13D, HRAS and NRAS are in context of their WT protein sequence background. Specifically, the SOS-catalyzed nucleotide exchange assay utilizes a preformed TR-FRET complex containing a specific biotinylated RAS protein (KRAS-G12C/V/D, G13D, HRAS, NRAS; described above) with Bodipy-GDP, and Terbium-streptavidin. Compounds are preincubated with this complex for 60 minutes. Subsequently, recombinant human SOS protein and unlabeled GTP are added to initiate the exchange reaction. Small molecule inhibitors stabilize the Bodipy-GDP complex whereas the untreated protein rapidly exchanges Bodipy-GDP for unlabeled GTP resulting in reduced TR-FRET signal.
(§3) To assemble the preformed TR-FRET complexes, each biotinylated RAS protein is diluted to 2 μM in an EDTA Buffer (20 mM HEPES pH 7.5, 50 mM sodium chloride, 10 mM EDTA, and 0.01% Tween) and incubated at room temperature for one hour. This mixture is then further diluted to 90 nM in an Assay Buffer (20 mM HEPES pH 7.5, 150 mM sodium chloride, 10 mM magnesium chloride, and 0.005% Tween) containing 15 nM of Terbium-Streptavidin (Invitrogen, catalog #PV3577) and 900 nM of Bodipy-GDP (Invitrogen, catalog #G22360) and incubated at room temperature for six hours. It should be noted that this preformed TR-FRET complex for each of the RAS protein were made ahead of time, aliquoted and stored at −80° C. until the day of the experiment.
(§4) Each test compound (10 mM stock in DMSO) is diluted in DMSO to make a final-10-point, 3-fold dilution and is acoustically dispensed into a 384-well assay plate (Corning, catalog #3820) using an Echo 550 (Labcyte). Each well of the assay plate receives 3 μL of a specific 3× RAS preformed TR-FRET complex and 3 μL of Assay Buffer and is incubated at room temperature for 60 minutes (preincubation time). Each well then receives 3 μL of 3× recombinant human SOS protein and GTP (Sigma, G8877) in Assay Buffer and is incubated at room temperature for 30 minutes (G13D), 60 minutes (G12C/D, H/NRAS) or 90 minutes for G12V. The final reaction in each well of […] consists of 3 mM GTP, specific Ras and SOS proteins in the following concentrations: KRAS-G12C/SOS=3 nM/40 nM, KRAS-G12D/SOS=1 nM/40 nM, KRAS-G12V/SOS=1.25 nM/160 nM, KRAS-G13D/SOS=1.25 nM/0 nM, HRAS & NRAS=1.25 nM/40 nM.
(§5) The time-resolved fluorescence resonance energy transfer (TR-FRET) signal is measured on an Envision (PerkinElmer) plate reader: Excitation filter=340 nm; emission1=495 nm; emission2=520 nm; dichroic mirror=D400/D505; delay time=[…]. The signal of each well is determined as the ratio of the emission at 520 nm to that at 495 nm. […] The apparent effect as a function of compound concentration is fit to a four-parameter logistic equation.

KRAS-G12D = target: T2, KRAS-G12D (Homo sapiens, UniProt P01116, G12D); assay: as above; assay type: biochemical; conditions: 60 min preincubation, SOS + GTP, read-out: KRAS G12D GNE IC50
T2 construct: N-terminal biotin-acceptor peptide […]
T2 sequence (P01116 with tags, fused parts or gaps isoform P01116-2 G12D): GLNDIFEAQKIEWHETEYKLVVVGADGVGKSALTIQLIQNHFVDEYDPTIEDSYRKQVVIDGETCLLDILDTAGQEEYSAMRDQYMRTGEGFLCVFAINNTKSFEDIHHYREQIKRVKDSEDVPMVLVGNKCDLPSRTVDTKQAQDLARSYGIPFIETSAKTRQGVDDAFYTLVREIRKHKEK
Description: as §1, §2, §3, §4, §5

[1] = test system: PANC08.13 cells (homozygous KRAS-G12D activating mutation); assay: Cellular phospho-ERK assay in G12D cell line; assay type: cell-based; conditions: Homo sapiens, PANC-08-13, 2 hours compound incubation, ratio of p-ERK vs. total ERK, read-out: PANC 0813 pERK IC50
Protocol: Procedure for Cellular Phospho-ERK Assay in G12D and G12V Cell Lines
PANC08.13 cells (ATCC® CRL-2551™), containing homozygous KRAS-G12D activating mutation, were cultured in growth medium made of RPMI1640-GlutaMAX™—I (ThermoFisher Scientific 61870) containing 15% heat inactivated fetal bovine serum (ThermoFisher Scientific 10091148)). SW620 cells (ATCC® […]), containing homozygous KRAS-G12V activating mutation, were cultured in growth medium that contains RPMI 1640-GlutaMAX™—I (ThermoFisher Scientific 61870) containing 10% heat inactivated fetal bovine serum (ThermoFisher Scientific 10091148).
Cells for the assay were harvested in growth medium after TrypLE (ThermoFisher scientific 12604021) digestion and were seeded in a 384-well collagen coated cell culture plate (Corning 356702) at a density of 10,000-15,000 cells/20 uL/well, and incubated at 37° C., 5% CO2 overnight. The compound (with 10 mM stock concentration) dose-response titrations were prepared [30 μM final ERK detection assay concentration and 1:3 dilutions, 10-point dose response] and appropriate amounts (270 nL) of test compounds were dispensed in a 384-well intermediate plate using an Echo 550 liquid handler. 30 uL/well of RPMI medium 1640-GlutaMAX™—I was added to the intermediate plate and the contents of the intermediate plate (10 uL/well) were then transferred to the 384-well collagen coated cell culture plate, which was incubated at 37° C., 5% CO2 for 2 hours. After removal of medium from the collagen coated cell culture plate, cells were lysed in lysis buffer from Alpha SureFire® Ultra™ Multiplex p-ERK and total ERK assay kit (PerkinElmer MPSU-PTERK) containing Halt™ Protease and Phosphatase inhibitor cocktail (ThermoFisher Scientific 78446) at room temperature with constant shaking at 300 rpm for 30 minutes. The cell lysates were then transferred to an OptiPlate-384 plate (PerkinElmer 6005620), and the phosphorylation of ERK (p-ERK) and total ERK levels were detected by Alpha SureFire® Ultra™ Multiplex p-EEK kit and total ERK assay kit (PerkinElmer MPSU-PTERK) following the manufacturer's protocol. Assay plates were read on a EnVision Multimode Plate Reader (PerkinElmer), and the ratio of p-ERK vs. total ERK in each well was used as the final readout. Dose response curves were analyzed using a 4-parameter logistic model to calculate IC50 values using Spotfire software.

T1 sequence (P01116 with tags, fused parts or gaps isoform P01116-2 G12V): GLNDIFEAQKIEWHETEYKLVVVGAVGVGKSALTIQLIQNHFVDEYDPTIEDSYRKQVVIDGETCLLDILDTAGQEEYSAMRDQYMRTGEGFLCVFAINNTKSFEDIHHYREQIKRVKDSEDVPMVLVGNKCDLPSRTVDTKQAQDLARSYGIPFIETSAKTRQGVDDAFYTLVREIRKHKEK

Compound	IC50 (KRAS-G12V) [nM]	IC50 (KRAS-G12D) [nM]	IC50 [1] [nM]
N#Cc1c(N)sc2c(F)ccc(-c3cc4nc(OC[C@@]56CCCN5C[C@H](F)C6)nc(N5CCCOCC5)c4nc3C(F)(F)F)c12 [Ex. 46, 2-amino-7-fluoro-4-(2-(((2R,7aS)-2-fluorotetrahydro-1H-pyrrolizin-7a(5H)-yl)methoxy)-4-(1,4-oxazepan-4-yl)-6-(trifluoromethyl)pyrido[3,2-d]pyrimidin-7-yl)benzo[b]thiophene-3-carbonitrile]	8.9	40.9	
CCC1CCOCCN1c1nc(OC[C@@]23CCCN2C[C@H](F)C3)nc2c(F)c(-c3ccc(F)c4sc(N)c(C#N)c34)c(Cl)cc12 (stereo partly drawn) [compound 14, 2-amino-4-(6-chloro-4-(5-ethyl-1,4-oxazepan-4-yl)-8-fluoro-2-(((2R,7aS)-2-fluorotetrahydro-1H-pyrrolizin-7a(5H)-yl)methoxy)quinazo-lin-7-yl)-7-fluorobenzo[b]thio-phene-3-carbonitrile]	6.18	6.32	154
Cc1cc(N)nc(-c2c(Cl)cc3c(N4CCCSCC4)nc(OC[C@@]45CCCN4C[C@H](F)C5)nc3c2F)c1C(F)(F)F [compound 42, 6-(6-chloro-8-fluoro-2-(((2R,7aS)-2-fluorotetrahydro-1H-pyrrolizin-7a(5H)-yl)methoxy)-4-(1,4-thiazepan-4-yl)quinazolin-7-yl)-4-methyl-5-(trifluoromethyl)pyridin-2-amine]	59.1	273	
N#Cc1c(N)sc2c(F)ccc(-c3c(Cl)cc4c(N5C6COCC5C6)nc(OC[C@@]56CCCN5C[C@H](F)C6)nc4c3F)c12 [compound 47, 4-(4-(3-oxa-6-azabicyclo[3.1.1]heptan-6-yl)-6-chloro-8-fluoro-2-(((2R,7aS)-2-fluorotetrahydro-1H-pyrrolizin-7a(5H)-yl)methoxy)quinazolin-7-yl)-2-amino-7-fluorobenzo[b]thiophene-3-carbonitrile]		23.4	
N#Cc1c(N)sc2c(F)ccc(-c3c(Cl)cc4c(N5CCOCC5)nc(OC[C@@]56CCCN5C[C@H](F)C6)nc4c3F)c12 [compound 48, 2-amino-4-(6-chloro-8-fluoro-2-(((2R,7aS)-2-fluorotetrahydro-1H-pyrrolizin-7a(5H)-yl)methoxy)-4-morpholinoquinazolin-7-yl)-7-fluorobenzo[b]thiophene-3-carbonitrile]	8.89	70.9	
C[C@H]1CCOCCN1c1nc(OC[C@@]23CCCN2C[C@H](F)C3)nc2cc(-c3ccc(F)c4sc(N)c(C#N)c34)c(C(F)(F)F)nc12 [compound 50, 2-amino-7-fluoro-4-(2-(((2R,7aS)-2-fluorotetrahydro-1H-pyrrolizin-7a(5H)-yl)methoxy)-4-((S)-5-methyl-1,4-oxazepan-4-yl)-6-(trifluoromethyl)pyrido[3,2-d]pyrimidin-7-yl)benzo[b]thiophene-3-carbonitrile]	7.6	30.5	
N#Cc1c(N)sc2c(F)ccc(-c3c(C(F)(F)F)cc4c(N5C[C@H]6CC[C@H]6C5)nc(OC[C@@]56CCCN5C[C@H](F)C6)nc4c3F)c12 [compound 52, 4-(4-((1R,5S)-3-azabicyclo[3.2.0]heptan-3-yl)-8-fluoro-2-(((2R,7aS)-2-fluorotetrahydro-1H-pyrrolizin-7a(5H)-yl)methoxy)-6-(trifluoromethyl)quinazo-lin-7-yl)-2-amino-7-fluorobenzo[b]thiophene-3-carbonitrile]	43.1	210	
N#Cc1c(N)sc2c(F)ccc(-c3c(C(F)(F)F)cc4c(N5CCC6(C5)CC6(F)F)nc(OC[C@@]56CCCN5C[C@H](F)C6)nc4c3F)c12 (stereo partly drawn) [compound 53, 2-amino-4-(4-(1,1-difluoro-5-azaspiro[2.4]heptan-5-yl)-8-fluoro-2-(((2R,7aS)-2-fluorotetrahydro-1H-pyrrolizin-7a(5H)-yl)methoxy)-6-(trifluoromethyl)quinazo-lin-7-yl)-7-fluorobenzo[b]thiophene-3-carbonitrile]	84.7	972	

Second part, the molecule after the results:

IC50 (KRAS-G12V) [nM]	IC50 (KRAS-G12D) [nM]	IC50 [1] [nM]	Compound
20.1	94	464	N#Cc1c(N)sc2c(F)ccc(-c3c(Cl)cc4c(N5CCOCCC5C(F)(F)F)nc(OC[C@@]56CCCN5C[C@H](F)C6)nc4c3F)c12 (stereo partly drawn) [compound 15, 2-amino-4-(6-chloro-8-fluoro-2-(((2R,7aS)-2-fluorotetrahydro-1H-pyrrolizin-7a(5H)-yl)methoxy)-4-(5-(trifluoromethyl)-1,4-oxazepan-4-yl)quinazolin-7-yl)-7-fluorobenzo[b]thio-phene-3-carbonitrile]
91.8	927		Cc1cc(N)nc(-c2c(Cl)cc3c(N4CCOCC(F)(F)C4)nc(OC[C@@]45CCCN4C[C@H](F)C5)nc3c2F)c1C(F)(F)F [compound 43, 6-(6-chloro-4-(6,6-difluoro-1,4-oxazepan-4-yl)-8-fluoro-2-(((2R,7aS)-2-fluorotetrahydro-1H-pyrrolizin-7a(5H)-yl)methoxy)quinazolin-7-yl)-4-methyl-5-(trifluoromethyl)pyridin-2-amine]
160	477		C[C@H]1CCOCCN1c1nc(OC[C@@]23CCCN2C[C@H](F)C3)nc2c(F)c(-c3ccc(F)c4sc(N)c(C#N)c34)ccc12 [compound 49, 2-amino-7-fluoro-4-(8-fluoro-2-(((2R,7aS)-2-fluorotetrahydro-1H-pyrrolizin-7a(5H)-yl)methoxy)-4-((S)-5-methyl-1,4-oxazepan-4-yl)quinazolin-7-yl)benzo[b]thiophene-3-carbonitrile]
4.52	23.7		N#Cc1c(N)sc2c(F)ccc(-c3c(C(F)(F)F)cc4c(N5CC6COC(C6)C5)nc(OC[C@@]56CCCN5C[C@H](F)C6)nc4c3F)c12 (stereo partly drawn) [compound 51, 4-(4-((1R,5S)-6-oxa-3-azabicyclo[3.2.1]octan-3-yl)-8-fluoro-2-(((2R,7aS)-2-fluorotetrahydro-1H-pyrrolizin-7a(5H)-yl)methoxy)-6-(trifluoromethyl)quinazo-lin-7-yl)-2-amino-7-fluorobenzo[b]thiophene-3-carbonitrile]

From patent US20260083750A1, “SMALL MOLECULE INHIBITORS OF KRAS PROTEINS” (MERCK SHARP & DOHME LLC, priority 2022, published 2026)
